# From patent US20230181614A1, “ADMINISTRATION OF CITICOLINE TO IMPROVE COGNITIVE PERFORMANCE, ATTENTIONAL PERFORMANCE, AND MOTOR FUNCTION” (KYOWA HAKKO BIO CO., LTD., priority 2014, published 2023)
# Values joined by “and” are separate entries in the source; they are usually repeats but may differ in a detail not shown here. Equal values may be shown once.
# Assays:
# Format in all cases: in vivo, human
# [1] = tested on: Healthy subjects, ages 13-18; assay: Conner-Wells Self-Report Scale (L) (Conners); settings: for Conners Score, Mean: V3-V1
# From the text: Study participants were screened by telephone prior to study enrollment. Healthy subjects, ages 13-18, with no significant medical conditions and no history of co-morbid psychiatric disorder, current Axis I or II diagnosis, or previous participation in a pharmacotherapeutic trial, were selected. Use of any psychotropic medication or any previous head injury resulting in loss of consciousness for 5 or more minutes were used as exclusion criteria. While no participant met criteria for a neuropsychiatric disorder at enrollment, clinical assessments were still completed throughout the study to evaluate changes in mood state. In addition, self-reports of sleep habits, lifestyle, and exercise routines were also administered at baseline as well as at each study visit to assess changes in health habits during study participation. Following the completion of Visit 1 assessment, participants were given their 28-day supply of citicoline (250 mg or 500 mg) or placebo, which was randomly assigned. They were instructed to take one capsule a day every day for the next 28 days. Visit 2 occurred fourteen days after Visit 1. At Visit 2, the remaining study pills were counted and participant dosage calendars were checked to ensure compliance with the protocol. Additional neuropsychological measures and clinical assessments were administered during this visit. Participants returned for Visit 3 fourteen days later, on the 28th day of their study participation. The pill bottle and the dosage calendar were collected from each participant. Urine and blood were again obtained. Participants also participated in similar clinical and neuropsychological testing and clinical measures that were given during visit 1. The Conners is a self-report questionnaire assessing a range or problem behaviors in children, including family problems, emotional problems, conduct problems, cognitive problems/inattention, anger control problems, hyperactivity, ADHD Index, and DSM-IV symptom subscales. The scale was administered at the first and third visits to assess presence or absence of a range of problem behaviors.
# [2] = tested on: Healthy subjects, ages 13-18; assay: Pittsburgh Sleep Quality Index (PSQI); settings: for PSQI Score, Mean: V3-V1
# From the text: Study participants were screened by telephone prior to study enrollment. Healthy subjects, ages 13-18, with no significant medical conditions and no history of co-morbid psychiatric disorder, current Axis I or II diagnosis, or previous participation in a pharmacotherapeutic trial, were selected. Use of any psychotropic medication or any previous head injury resulting in loss of consciousness for 5 or more minutes were used as exclusion criteria. While no participant met criteria for a neuropsychiatric disorder at enrollment, clinical assessments were still completed throughout the study to evaluate changes in mood state. In addition, self-reports of sleep habits, lifestyle, and exercise routines were also administered at baseline as well as at each study visit to assess changes in health habits during study participation. Following the completion of Visit 1 assessment, participants were given their 28-day supply of citicoline (250 mg or 500 mg) or placebo, which was randomly assigned. They were instructed to take one capsule a day every day for the next 28 days. Visit 2 occurred fourteen days after Visit 1. At Visit 2, the remaining study pills were counted and participant dosage calendars were checked to ensure compliance with the protocol. Additional neuropsychological measures and clinical assessments were administered during this visit. Participants returned for Visit 3 fourteen days later, on the 28th day of their study participation. The pill bottle and the dosage calendar were collected from each participant. Urine and blood were again obtained. Participants also participated in similar clinical and neuropsychological testing and clinical measures that were given during visit 1. The PSQI is a self-report sleep questionnaire designed to assess usual sleep habits during the past month. The PSQI was administered at each of the three study visits to assess alterations to sleep quality during the 28 days of study participation.
# [3] = tested on: Healthy subjects, ages 13-18; assay: Trail Making Test; set-up: Trail Making B V1 (Mean) / Trail Making B V3 (Mean) / Trail Making B-A V1 (Mean) / Trail Making B-A V3 (Mean) / V3-V1 Trail Making B (Mean) / V3-V1 Trail Making B-A (Mean): unit not given here; settings: for Trail Making A V1 (Mean) / Trail Making B V1 (Mean) / Trail Making B-A V1 (Mean): Visit 1; for Trail Making A V3 (Mean) / Trail Making B V3 (Mean) / Trail Making B-A V3 (Mean): Visit 3; for V3-V1 Trail Making A (Mean) / V3-V1 Trail Making B (Mean) / V3-V1 Trail Making B-A (Mean): visit difference score V3-V1
# From the text: Study participants were screened by telephone prior to study enrollment. Healthy subjects, ages 13-18, with no significant medical conditions and no history of co-morbid psychiatric disorder, current Axis I or II diagnosis, or previous participation in a pharmacotherapeutic trial, were selected. Use of any psychotropic medication or any previous head injury resulting in loss of consciousness for 5 or more minutes were used as exclusion criteria. While no participant met criteria for a neuropsychiatric disorder at enrollment, clinical assessments were still completed throughout the study to evaluate changes in mood state. In addition, self-reports of sleep habits, lifestyle, and exercise routines were also administered at baseline as well as at each study visit to assess changes in health habits during study participation.
# Following the completion of Visit 1 assessment, participants were given their 28-day supply of citicoline (250 mg or 500 mg) or placebo, which was randomly assigned. They were instructed to take one capsule a day every day for the next 28 days.
# Visit 2 occurred fourteen days after Visit 1. At Visit 2, the remaining study pills were counted and participant dosage calendars were checked to ensure compliance with the protocol. Additional neuropsychological measures and clinical assessments were administered during this visit.
# Participants returned for Visit 3 fourteen days later, on the 28th day of their study participation. The pill bottle and the dosage calendar were collected from each participant. Urine and blood were again obtained. Participants also participated in similar clinical and neuropsychological testing and clinical measures that were given during visit 1.
# The Trail Making Test is designed to measure visual conceptual and visuomotor tracking, as well as maintenance of cognitive set. On Trial A the participant must draw lines to connect consecutively numbered circles on one work sheet (1-2-3-4 etc.). For Part B they must connect numbered and lettered circles by alternating between the two sequences (i.e., 1-A-2-B etc.). Part B is the more sensitive of the two tests -- particularly to frontal-lobe dysfunction -- as scores on this section are indicative of the participant’s ability to shift sets (numeric to alphabetical order) and process concurrent stimuli. This test was administered on all three visits.
smiles,measurement,setting,value
"C[N+](C)(C)CCOP(=O)(O)OP(=O)([O-])OC[C@H]1O[C@@H](n2ccc(N)nc2=O)[C@H](O)[C@@H]1O [citicoline, Cytidine 5′-diphosphocholine]","Conners, Mean","[1]; 250 mg/day, V1 (baseline)",49.26
same,"Conners, Mean","[1]; 250 mg/day, V3 (day 28)",49.52 and 46.52
same,"Conners Score, Mean",[1]; 250 mg/day,-2.74
same,"Conners, Mean","[1]; 500 mg/day, V1 (baseline)",43.83
same,"Conners, Mean","[1]; 500 mg/day, V3 (day 28)",39.54
same,"Conners Score, Mean",[1]; 500 mg/day,-4.29
same,"PSQI, Mean","[2]; 250 mg/day, V1 (baseline)",3.41
same,"PSQI, Mean","[2]; 250 mg/day, V3 (day 28)",2.59
same,"PSQI Score, Mean",[2]; 250 mg/day,-0.81
same,"PSQI, Mean","[2]; 500 mg/day, V1 (baseline)",3.38
same,"PSQI, Mean","[2]; 500 mg/day, V3 (day 28)",2.46
same,"PSQI Score, Mean",[2]; 500 mg/day,-0.92
same,Trail Making A V1 (Mean),[3]; 250 mg/day group,11.16
same,Trail Making B V1 (Mean),[3]; 250 mg/day group,29.15
same,Trail Making B-A V1 (Mean),[3]; 250 mg/day group,17.99
same,Trail Making A V3 (Mean),[3]; 250 mg/day group,9.37
same,Trail Making B V3 (Mean),[3]; 250 mg/day group,18.40
same,Trail Making B-A V3 (Mean),[3]; 250 mg/day group,9.00
same,V3-V1 Trail Making A (Mean),[3]; 250 mg/day group,-1.80
same,V3-V1 Trail Making B (Mean),[3]; 250 mg/day group,-10.75
same,V3-V1 Trail Making B-A (Mean),[3]; 250 mg/day group,-8.99
same,Trail Making A V1 (Mean),[3]; 500 mg/day group,12.89
same,Trail Making B V1 (Mean),[3]; 500 mg/day group,28.60
same,Trail Making B-A V1 (Mean),[3]; 500 mg/day group,15.71
same,Trail Making A V3 (Mean),[3]; 500 mg/day group,9.28
same,Trail Making B V3 (Mean),[3]; 500 mg/day group,23.02
same,Trail Making B-A V3 (Mean),[3]; 500 mg/day group,13.73
same,V3-V1 Trail Making A (Mean),[3]; 500 mg/day group,-3.60
same,V3-V1 Trail Making B (Mean),[3]; 500 mg/day group,-5.58
same,V3-V1 Trail Making B-A (Mean),[3]; 500 mg/day group,-1.98
